Test results published in article PMC12019328, “Discovery of an ApoE4-targeted small-molecule SirT1 enhancer for the treatment of Alzheimer’s disease” (Scientific Reports, 2025).

Target: T1, protein arginine methyltransferase (PRMT) (Homo sapiens, UniProt Q86X55)
T1 construct: proteins from human neuroblastoma SH-SY5Y; endogenous in cells; host or cells: SH-SY5Y human neuroblastoma cell lysate
T1 sequence (Q86X55 1-608): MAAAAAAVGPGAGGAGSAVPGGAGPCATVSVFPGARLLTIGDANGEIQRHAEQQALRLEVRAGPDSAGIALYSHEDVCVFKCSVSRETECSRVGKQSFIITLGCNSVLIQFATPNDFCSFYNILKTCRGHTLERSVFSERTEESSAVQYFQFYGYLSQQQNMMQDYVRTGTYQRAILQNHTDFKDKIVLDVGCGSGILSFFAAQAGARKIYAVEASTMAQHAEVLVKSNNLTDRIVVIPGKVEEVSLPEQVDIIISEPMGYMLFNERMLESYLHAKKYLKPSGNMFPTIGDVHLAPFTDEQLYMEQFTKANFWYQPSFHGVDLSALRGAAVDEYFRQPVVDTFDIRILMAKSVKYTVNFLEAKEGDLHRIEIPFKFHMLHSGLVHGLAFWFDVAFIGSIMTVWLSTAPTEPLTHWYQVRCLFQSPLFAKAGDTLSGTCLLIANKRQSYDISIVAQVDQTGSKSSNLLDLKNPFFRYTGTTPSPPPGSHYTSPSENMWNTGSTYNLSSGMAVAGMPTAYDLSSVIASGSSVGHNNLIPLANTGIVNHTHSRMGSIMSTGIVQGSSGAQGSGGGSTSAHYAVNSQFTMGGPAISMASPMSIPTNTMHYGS
Experiment: Affinity purification and STRING analysis-based proteomics with SH-SY5Y cell lysates
Assay type: binding
Conditions: compound clicked to agarose magnetic beads
Experimental: To assist in identification of possible protein interactions of our SirT1 enhancers, affinity purification and STRING analysis-based proteomics was used, as described in Supplementary Methods. […] To assess effects of various PRMTs 1, 4, 5, 7 and 8 on SirT1, N2a-E4 cells were transfected with each of these PRMTs as described in Supplementary Methods. […]
supernatants were transferred to new tubes and lyophilized. Samples were reconstituted in 100 µL of 50/50/0.1 (Water/Acetonitrile/Formic Acid) prior to analysis via liquid chromatography-tandem mass spectrometry (LC-MS/MS).
Normalized chromatographic peak areas was plotted at each time point and the half-life (T1/2) of compound in liver microsomes was determined by using the trendline equation to calculate the time at which compound abundance was 50% of that at timepoint 0 (T0).
Kinetic solubility was assessed by separately diluting a test compound solution (10 mM, 100% DMSO) into the aqueous buffer (PBS pH 7.4) and DMSO at 100 μM, 100 μL total volume.
The solutions were then incubated at 37°C for 90 min and centrifuged (16000xg, 5 min). An aliquot (50 µL) of each supernatant was analyzed by LC-MS/MS.
Five standard concentrations (100, 10, 1, 0.1, and 0, DMSO) in duplicates were incubated at 37°C for 90 min and centrifuged (16000xg, 5 min). Aliquots (50 µL) of supernatant were analyzed by LC-MS/MS to create the standard curve.
Table S2. […]

SMILES: C#Cc1ccc(CC(C)(C)NC(=O)[C@H](C)N)cc1 [DDL-220]
- protein interaction found by affinity purification: a protein arginine methyltransferase (PRMT) interacts with DDL-220
